Reference: publication PMC2099433, “The binding site for neohesperidin dihydrochalcone at the human sweet taste receptor” (BMC Structural Biology, 2007)
Where a chain is given by its changes, count along the chain named. Where a SMILES comes first, the peptide text is derived from it.

Experiments:
[1] = target: T1, hTAS1R2 + hTAS1R3 V621L^2.58 (Homo sapiens, UniProt Q7RTX0+Q8TE23, V621L); experiment: Calcium response (FLIPR), hTAS1R3 mutant coexpressed with hTAS1R2; assay type: cell-based; conditions: for receptor activation: mutant V621L^2.58; for EC50: variant V621L^2.58, n.f. = no response to any tested sweetener
T1 construct: expressed in transfected cells; host or cells: HEK293T cells stably expressing G16Gust44
T1 sequence (Q8TE23 20-839): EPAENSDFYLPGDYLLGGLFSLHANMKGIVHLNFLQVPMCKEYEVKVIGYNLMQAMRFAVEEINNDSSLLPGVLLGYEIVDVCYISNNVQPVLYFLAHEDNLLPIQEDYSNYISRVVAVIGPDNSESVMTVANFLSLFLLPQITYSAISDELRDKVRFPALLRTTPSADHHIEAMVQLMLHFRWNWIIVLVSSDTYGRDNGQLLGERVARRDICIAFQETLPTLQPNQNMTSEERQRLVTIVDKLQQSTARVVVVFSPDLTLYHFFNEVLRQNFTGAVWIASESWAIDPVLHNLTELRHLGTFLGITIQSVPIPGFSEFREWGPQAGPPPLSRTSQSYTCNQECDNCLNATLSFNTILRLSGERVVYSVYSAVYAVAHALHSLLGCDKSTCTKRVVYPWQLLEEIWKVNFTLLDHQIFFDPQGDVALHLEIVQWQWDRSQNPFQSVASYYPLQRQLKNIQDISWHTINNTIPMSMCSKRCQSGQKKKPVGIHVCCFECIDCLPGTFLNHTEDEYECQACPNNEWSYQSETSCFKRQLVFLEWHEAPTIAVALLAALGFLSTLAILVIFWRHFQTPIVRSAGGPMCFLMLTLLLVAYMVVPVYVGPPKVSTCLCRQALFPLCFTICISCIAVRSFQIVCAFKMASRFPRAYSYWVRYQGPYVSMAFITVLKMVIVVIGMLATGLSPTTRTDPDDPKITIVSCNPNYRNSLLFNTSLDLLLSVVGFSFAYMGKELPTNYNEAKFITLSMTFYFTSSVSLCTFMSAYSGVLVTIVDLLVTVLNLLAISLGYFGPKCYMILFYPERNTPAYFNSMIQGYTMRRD
T1 sequence (Q7RTX0 21-852 V621L): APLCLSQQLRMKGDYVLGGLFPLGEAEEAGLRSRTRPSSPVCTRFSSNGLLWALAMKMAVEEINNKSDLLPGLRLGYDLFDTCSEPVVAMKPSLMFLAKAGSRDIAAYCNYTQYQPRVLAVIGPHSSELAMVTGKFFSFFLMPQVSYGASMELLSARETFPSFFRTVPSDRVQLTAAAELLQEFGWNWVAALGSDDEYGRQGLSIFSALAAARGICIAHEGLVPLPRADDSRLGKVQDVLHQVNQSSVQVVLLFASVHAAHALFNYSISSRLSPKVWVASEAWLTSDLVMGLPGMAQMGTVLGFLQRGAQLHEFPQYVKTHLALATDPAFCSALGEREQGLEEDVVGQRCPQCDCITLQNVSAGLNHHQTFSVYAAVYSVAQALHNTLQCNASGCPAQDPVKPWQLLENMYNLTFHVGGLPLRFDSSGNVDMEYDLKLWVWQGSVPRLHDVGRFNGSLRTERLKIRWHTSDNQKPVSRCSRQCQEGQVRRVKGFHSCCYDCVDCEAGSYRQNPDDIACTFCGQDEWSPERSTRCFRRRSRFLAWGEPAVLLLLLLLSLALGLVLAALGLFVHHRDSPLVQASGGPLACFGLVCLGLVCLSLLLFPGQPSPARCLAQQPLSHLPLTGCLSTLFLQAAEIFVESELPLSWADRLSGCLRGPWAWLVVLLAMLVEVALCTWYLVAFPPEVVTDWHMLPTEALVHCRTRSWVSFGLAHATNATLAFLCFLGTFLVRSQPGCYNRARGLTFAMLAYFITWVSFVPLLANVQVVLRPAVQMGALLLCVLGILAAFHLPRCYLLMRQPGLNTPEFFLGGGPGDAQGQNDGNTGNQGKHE
Procedure: (§1) The cDNAs for TAS1Rs tagged at the C-terminus with the herpes simplex virus glycoprotein D (HSV) were transiently transfected into HEK293T cells stably expressing the chimeric G-protein subunit G16Gust44 [44] using Lipofectamine 2000 (Invitrogen, Carlsbad, CA) according to the manufacturer's protocol. 3–4 hours after transfection, DMEM was replaced by low-glucose DMEM supplemented with GlutaMAX and 10% dialyzed FBS (Invitrogen, Carlsbad, CA). 24 h post transfection, cells were loaded for 1 h with the calcium sensitive dye Fluo4-AM (2 μg/ml in DMEM, Molecular Probes, Carlsbad, CA). […] We monitored calcium mobilization following receptor stimulation with sweet tastants by an automated fluorometric imaging plate reader (FLIPR, Molecular Devices, Sunnyvale, CA). Compounds used as stimuli (Sigma-Aldrich, St. Louis, MO; Merck, Whitehouse Station, NJ) were dissolved in C1 solution. All data were collected from at least three independent experiments carried out in duplicate. The obtained calcium signals were corrected for the response of mock transfected cells and normalized to the fluorescence of cells prior to the application of the stimulus using ΔF/F = (F-F0)/F0.

[2] = target: T2, hTAS1R2 + hTAS1R3 C801I^7.39 (Homo sapiens, UniProt Q7RTX0+Q8TE23, C801I); experiment: as above; assay type: cell-based; conditions: for EC50 / Emax: variant C801I^7.39; for Emax: read-out: maximal signal (% of wt)
T2 construct: expressed in transfected cells; host or cells: HEK293T cells stably expressing G16Gust44
T2 sequence (Q7RTX0 21-852 C801I): T1 sequence (Q7RTX0 21-852 V621L) with L601V, C781I
T2 sequence (Q8TE23 20-839): T1 sequence (Q8TE23 20-839)
Procedure: as §1

Structure (SMILES)	receptor activation [1]	EC50 [2] [µM]	Emax [2] [%]	EC50 [1]	receptor activation ([2]; mutant C801I^7.39, any tested concentration)
CC1=CC(=O)NS(=O)(=O)O1 [acesulfame K]	could not be activated	–	–	–	–
COc1ccc(CCC(=O)c2c(O)cc(O[C@@H]3O[C@H](CO)[C@@H](O)[C@H](O)[C@H]3O[C@@H]3O[C@@H](C)[C@H](O)[C@@H](O)[C@H]3O)cc2O)cc1O [NHDC, neohesperidin dihydrochalcone]	could not be activated	1600 ± 700	70 ± 13	n.f.	–
O=S(=O)(O)NC1CCCCC1 [cyclamate]	could not be activated	–	–	–	could not be activated at any tested concentration
COC(=O)[C@H](Cc1ccccc1)NC(=O)[C@@H](N)CC(=O)O [aspartame] (HELM PEPTIDE1{D.F.[CO[*:1]]}$$$$V2.0)	could not be activated	1200 ± 500	50 ± 9	n.f.	–
